Where two headings read alike, the source gives them in different places.
What was measured:
Assay in all cases: Sensitivity test (agar dilution)
P. aeruginosa TL-2667 = format: cell-based, Pseudomonas aeruginosa; settings: Pseudomonas aeruginosa
Outline: (§1)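 FIC index is computed from MICs of each drug alone versus in combination (≤1 = enhancement, >1 = none). MICs are measured on Mueller Hinton agar plates carrying twofold dilution series and inoculated with about 10^6 CFU/ml bacterial suspension.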

S. maltophilia IID1275 = format: cell-based, Stenotrophomonas maltophilia; settings: Stenotrophomonas maltophilia
Outline: as §1

M. catarrhalis ATCC25238 = format: cell-based, Moraxella catarrhalis; settings: Moraxella catarrhalis
Outline: as §1

M. catarrhalis ATCC8176 = format: cell-based, Moraxella catarrhalis; settings: Moraxella catarrhalis
Outline: as §1

With `C[C@H]1C=C(c2csc(SC3=C(C(=O)O)N4C(=O)[C@H]([C@@H](C)O)[C@H]4[C@H]3C)n2)CN1` [SM, (4R,5S,6S)-6-[(1R)-1-Hydroxyethyl]-4-methyl-3-({4-[(5S)-5-methyl-2,5-dihydro-1H-pyrrol-3-yl]-1,3-thiazol-2-yl}sulfanyl)-7-oxo-1-azabicyclo[3.2.0]hept-2-ene-2-carboxylic acid] the MIC (P. aeruginosa TL-2667; TL2667, Concomitant (MEPM:SM = 1:4), read-out: MIC) was 8 µg/mL, the MIC (P. aeruginosa TL-2667; TL2667, Concomitant (PAPM:SM = 1:1), P. aeruginosa TL-2667, read-out: MIC concomitant) was 16 µg/mL and the MIC (P. aeruginosa TL-2667; TL2667, Concomitant (PIPC:SM = 1:1), P. aeruginosa TL-2667, read-out: MIC concomitant) was 16 µg/mL. It also gave an MIC (P. aeruginosa TL-2667; TL2667, Concomitant drug (MEPM:SM = 2:1), read-out: MIC) of 2 µg/mL, an MIC (P. aeruginosa TL-2667; TL2667, alone, read-out: MIC) of 16 µg/mL and an MIC (P. aeruginosa TL-2667; TL2667, drug alone, P. aeruginosa TL-2667, read-out: MIC alone) of 16 µg/mL. The MIC (S. maltophilia IID1275; IID1275, Concomitant (AZT:SM = 1:1), S. maltophilia IID1275, read-out: MIC concomitant) was > 32 µg/mL, the MIC (S. maltophilia IID1275; IID1275, Concomitant (BIPM:SM = 1:1), S. maltophilia IID1275, read-out: MIC concomitant) was > 32 µg/mL and the MIC (S. maltophilia IID1275; IID1275, Concomitant (CAZ:SM = 1:1), S. maltophilia IID1275, read-out: MIC concomitant) was > 32 µg/mL. For the same molecule, the MIC (S. maltophilia IID1275; IID1275, Concomitant (CPFX:SM = 1:1), S. maltophilia IID1275, read-out: MIC concomitant) was 1 µg/mL, the MIC (S. maltophilia IID1275; IID1275, Concomitant (DRPM:SM = 1:1), S. maltophilia IID1275, read-out: MIC concomitant) was > 32 µg/mL and the MIC (S. maltophilia IID1275; IID1275, Concomitant (IPM:SM = 1:1), read-out: MIC) was > 32 µg/mL. For the same molecule, the MIC (S. maltophilia IID1275; IID1275, Concomitant (MEPM:SM = 1:1), read-out: MIC) was > 32 µg/mL, the MIC (S. maltophilia IID1275; IID1275, Concomitant (MEPM:SM = 1:2), read-out: MIC) was > 64 µg/mL and the MIC (S. maltophilia IID1275; IID1275, Concomitant (MEPM:SM = 1:4), read-out: MIC) was > 128 µg/mL. For the same molecule, the MIC (S. maltophilia IID1275; IID1275, Concomitant (PAPM:SM = 1:1), S. maltophilia IID1275, read-out: MIC concomitant) was > 32 µg/mL, the MIC (S. maltophilia IID1275; IID1275, Concomitant (PIPC:SM = 1:1), S. maltophilia IID1275, read-out: MIC concomitant) was > 32 µg/mL and the MIC (S. maltophilia IID1275; IID1275, Concomitant drug (MEPM:SM = 2:1), read-out: MIC) was > 16 µg/mL. The MIC (S. maltophilia IID1275; IID1275, drug alone, S. maltophilia IID1275, read-out: MIC alone) was > 32 µg/mL, the MIC (M. catarrhalis ATCC25238; ATCC25238, Concomitant (AZT:SM = 1:1), M. catarrhalis ATCC25238, read-out: MIC concomitant) was ≤ 2 ng/mL and the MIC (M. catarrhalis ATCC25238; ATCC25238, Concomitant (BIPM:SM = 1:1), M. catarrhalis ATCC25238, read-out: MIC concomitant) was ≤ 2 ng/mL. The MIC (M. catarrhalis ATCC25238; ATCC25238, Concomitant (CAZ:SM = 1:1), M. catarrhalis ATCC25238, read-out: MIC concomitant) was ≤ 2 ng/mL, the MIC (M. catarrhalis ATCC25238; ATCC25238, Concomitant (CPFX:SM = 1:1), M. catarrhalis ATCC25238, read-out: MIC concomitant) was ≤ 2 ng/mL and the MIC (M. catarrhalis ATCC25238; ATCC25238, Concomitant (DRPM:SM = 1:1), M. catarrhalis ATCC25238, read-out: MIC concomitant) was ≤ 2 ng/mL. The MIC (M. catarrhalis ATCC25238; ATCC25238, Concomitant (IPM:SM = 1:1), read-out: MIC) was ≤ 2 ng/mL, the MIC (M. catarrhalis ATCC25238; ATCC25238, Concomitant (MEPM:SM = 1:1), read-out: MIC) was ≤ 16 ng/mL and the MIC (M. catarrhalis ATCC25238; ATCC25238, Concomitant (MEPM:SM = 1:2), read-out: MIC) was ≤ 31 ng/mL. For the same molecule, the MIC (M. catarrhalis ATCC25238; ATCC25238, Concomitant (MEPM:SM = 1:4), read-out: MIC) was ≤ 63 ng/mL, the MIC (M. catarrhalis ATCC25238; ATCC25238, Concomitant (PAPM:SM = 1:1), M. catarrhalis ATCC25238, read-out: MIC concomitant) was ≤ 2 ng/mL and the MIC (M. catarrhalis ATCC25238; ATCC25238, Concomitant (PIPC:SM = 1:1), M. catarrhalis ATCC25238, read-out: MIC concomitant) was ≤ 2 ng/mL. The MIC (M. catarrhalis ATCC25238; ATCC25238, Concomitant drug (MEPM:SM = 2:1), read-out: MIC) was ≤ 8 ng/mL, the MIC (M. catarrhalis ATCC25238; ATCC25238, drug alone, M. catarrhalis ATCC25238, read-out: MIC alone) was ≤ 2 ng/mL and the MIC (M. catarrhalis ATCC8176; ATCC8176, Concomitant (AZT:SM = 1:1), M. catarrhalis ATCC8176, read-out: MIC concomitant) was ≤ 2 ng/mL. For the same molecule, the MIC (M. catarrhalis ATCC8176; ATCC8176, Concomitant (BIPM:SM = 1:1), M. catarrhalis ATCC8176, read-out: MIC concomitant) was ≤ 2 ng/mL, the MIC (M. catarrhalis ATCC8176; ATCC8176, Concomitant (CAZ:SM = 1:1), M. catarrhalis ATCC8176, read-out: MIC concomitant) was ≤ 2 ng/mL and the MIC (M. catarrhalis ATCC8176; ATCC8176, Concomitant (CPFX:SM = 1:1), M. catarrhalis ATCC8176, read-out: MIC concomitant) was ≤ 2 ng/mL. The MIC (M. catarrhalis ATCC8176; ATCC8176, Concomitant (DRPM:SM = 1:1), M. catarrhalis ATCC8176, read-out: MIC concomitant) was ≤ 2 ng/mL, the MIC (M. catarrhalis ATCC8176; ATCC8176, Concomitant (IPM:SM = 1:1), read-out: MIC) was ≤ 2 ng/mL and the MIC (M. catarrhalis ATCC8176; ATCC8176, Concomitant (MEPM:SM = 1:1), read-out: MIC) was ≤ 16 ng/mL. For the same molecule, the MIC (M. catarrhalis ATCC8176; ATCC8176, Concomitant (MEPM:SM = 1:2), read-out: MIC) was ≤ 31 ng/mL, the MIC (M. catarrhalis ATCC8176; ATCC8176, Concomitant (MEPM:SM = 1:4), read-out: MIC) was ≤ 63 ng/mL and the MIC (M. catarrhalis ATCC8176; ATCC8176, Concomitant (PAPM:SM = 1:1), M. catarrhalis ATCC8176, read-out: MIC concomitant) was ≤ 2 ng/mL. The MIC (M. catarrhalis ATCC8176; ATCC8176, Concomitant (PIPC:SM = 1:1), M. catarrhalis ATCC8176, read-out: MIC concomitant) was ≤ 2 ng/mL, the MIC (M. catarrhalis ATCC8176; ATCC8176, Concomitant drug (MEPM:SM = 2:1), read-out: MIC) was ≤ 8 ng/mL and the MIC (M. catarrhalis ATCC8176; ATCC8176, drug alone, M. catarrhalis ATCC8176, read-out: MIC alone) was ≤ 2 ng/mL.
